Experimental data from patent US8895509B2, “MIR-200 family induces mesenchymal-to-epithelial transition (MET) in ovarian cancer cells” (Georgia Tech Research Corporation, priority 2010, dated 2014).

Assays:
[1] = test system: HEY cells; test: microarray profiling (Affymetrix HG-U133 Plus 2.0) of miR-429 transfected HEY cells; type: cell-based, human; conditions: for Fold-change: miR-429 transfected HEY cells
Protocol: 6×10^4 cells per well were seeded in 24-well plates. After 24 h, cells were transfected with 30 nM of miR-429 and miR-320 miRNA oligonucleotides (Ambion, Austin, Tex.) using Lipofectamine 2000 reagent (Invitrogen, Carlsbad, Calif.). The Ambion Pre-miRNA Precursor Negative Control was used as a control. Three days after transfection, cells were split and transfected again. This process was repeated every 3 days until 21 days when cells were assayed for response.
Microarray analyses were performed using the Affymetrix system (HG-U133 Plus 2.0; Santa Clara, Calif.) as previously described [Bowen et al., BMC Med Genomics 2009, 2:71]. Briefly, the expression data were analyzed using MAS 5.0 Statistical Algorithm encoded in the Affymetrix Expression Console application. The expression values were normalized across samples by Z-score calculation using Spotfire Decision Site software. […] Gene enrichment analyses were carried out using GeneGO (http://www.genego.com/) gene ontology software.

[2] = test system: HEY cells; test: sensitivity of transfected HEY cells to cisplatin; type: cell-based, human; conditions: miR-429 vs negative control miRNA
Protocol: Cultures of the mesenchymal HEY cells were transfected with a negative control (NC) miRNA or miR-429 using Lipofectamine 2000 (Invitrogen) and treated with increasing concentrations of cisplatin. (0.1, 0.5, 1, 3, 5, 7, 10, 15, 20, 30, 50 μM).

[3] = miR-429 transfected cells vs controls, p<0.015, fold change 1.5

miR-429: miR-200 family member; mature miRNA UAAUACUGUCUGGUAAAACCGU (SEQ ID NO: 6); miRNA oligonucleotide (Ambion) transfected at 30 nM (listed as RNA, chemistry not given here; listed as Homo sapiens) [miR-200 family member; miRNA oligonucleotide (Ambion) transfected at 30 nM]
Fold change (miR-429 transfected HEY cells relative to negative controls) ([1]; gene AARS): −2.57 | Fold change (miR-429 transfected HEY cells relative to negative controls) ([1]; gene ABCF2): −3.48 | Fold change (miR-429 transfected HEY cells relative to negative controls) ([1]; gene ALDH1L2): −11.31 | Fold change (miR-429 transfected HEY cells relative to negative controls) ([1]; gene ANK2): −3.58 | Fold change (miR-429 transfected HEY cells relative to negative controls) ([1]; gene ANKRD23): −7.62 | Fold change (miR-429 transfected HEY cells relative to negative controls) ([1]; gene ASAM): −3.48 | Fold change (miR-429 transfected HEY cells relative to negative controls) ([1]; gene ASNS): −6.82 | Fold-change ([1]; gene B3GALNT2): −2.16 | Fold change (miR-429 transfected HEY cells relative to negative controls) ([1]; gene BCHE): −2.93 | Fold change (miR-429 transfected HEY cells relative to negative controls) ([1]; gene C6orf105): −2.48 | Fold change (miR-429 transfected HEY cells relative to negative controls) ([1]; gene C11orf57): −2.41 | Fold change (miR-429 transfected HEY cells relative to negative controls) ([1]; gene C12orf39): −10.06 | Fold change (miR-429 transfected HEY cells relative to negative controls) ([1]; gene C12orf55): −6.06 | Fold change (miR-429 transfected HEY cells relative to negative controls) ([1]; gene C17orf51): −3.46 | change in expression by microarray ([1]; gene CAV2 (epithelial marker)): up-regulated | Fold change (miR-429 transfected HEY cells relative to negative controls) ([1]; gene CBS): −2.68 | Fold change (miR-429 transfected HEY cells relative to negative controls) ([1]; gene CCDC148): −3.39 | Fold change (miR-429 transfected HEY cells relative to negative controls) ([1]; gene CCDC152): −3.10 | Fold change (miR-429 transfected HEY cells relative to negative controls) ([1]; gene CCND2): −4.03 | Fold change (miR-429 transfected HEY cells relative to negative controls) ([1]; gene CCNJ): −2.45 | Fold change (miR-429 transfected HEY cells relative to negative controls) ([1]; gene CDC42EP1): −3.48 | Fold change (miR-429 transfected HEY cells relative to negative controls) ([1]; gene CDKAL1): −2.64 | Fold change (miR-429 transfected HEY cells relative to negative controls) ([1]; gene CDO1): −13.45 | Fold-change ([1]; gene CFL2): −1.75 | Fold change (miR-429 transfected HEY cells relative to negative controls) ([1]; gene CHST10): −4.03 | Fold change (miR-429 transfected HEY cells relative to negative controls) ([1]; gene CLGN): −2.79 | Fold change (miR-429 transfected HEY cells relative to negative controls) ([1]; gene COLEC12): −16.11 | Fold change (miR-429 transfected HEY cells relative to negative controls) ([1]; gene CXCL3): −2.57 | Fold change (miR-429 transfected HEY cells relative to negative controls) ([1]; gene CYCS): −2.73 | Fold change (miR-429 transfected HEY cells relative to negative controls) ([1]; gene DDR2): −2.68 | Fold-change ([1]; gene DNAJB4): −1.53 | Fold-change ([1]; gene DPY19L1): −1.64 | change in expression by microarray ([1]; gene DSP (epithelial marker)): up-regulated | Fold-change ([1]; gene EIF2B5): −2.10 | change in expression by microarray ([1]; gene EPCAM (epithelial marker)): up-regulated | Fold change (miR-429 transfected HEY cells relative to negative controls) ([1]; gene EPHB1): −4.06 | Fold change (miR-429 transfected HEY cells relative to negative controls) ([1]; gene ERN1): −3.51 | Fold change (miR-429 transfected HEY cells relative to negative controls) ([1]; gene EXOSC6): −2.87 | Fold change (miR-429 transfected HEY cells relative to negative controls) ([1]; gene F2RL2): −5.35 | Fold change (miR-429 transfected HEY cells relative to negative controls) ([1]; gene FLJ34077): −2.73 | Fold change (miR-429 transfected HEY cells relative to negative controls) ([1]; gene FOXP3): −3.76 | Fold change (miR-429 transfected HEY cells relative to negative controls) ([1]; gene GALNT12): −2.39 | Fold change (miR-429 transfected HEY cells relative to negative controls) ([1]; gene GART): −3.94 | Fold change (miR-429 transfected HEY cells relative to negative controls) ([1]; gene GAS7): −12.55 | Fold change (miR-429 transfected HEY cells relative to negative controls) ([1]; gene GLIPR1): −2.73 | Fold change (miR-429 transfected HEY cells relative to negative controls) ([1]; gene GLT8D2): −4.76 | Fold change (miR-429 transfected HEY cells relative to negative controls) ([1]; gene GPATCH4): −2.87 | Fold-change ([1]; gene GREM1): −2.10 | Fold change (miR-429 transfected HEY cells relative to negative controls) ([1]; gene GRK4): −3.14 | Fold change (miR-429 transfected HEY cells relative to negative controls) ([1]; gene HIF3A): −3.12 | Fold change (miR-429 transfected HEY cells relative to negative controls) ([1]; gene HORMAD1): −10.48 | Fold change (miR-429 transfected HEY cells relative to negative controls) ([1]; gene HS6ST3): −2.64 | Fold change (miR-429 transfected HEY cells relative to negative controls) ([1]; gene HSPA9): −2.48 | Fold change (miR-429 transfected HEY cells relative to negative controls) ([1]; gene INTS4): −2.81 | Fold change (miR-429 transfected HEY cells relative to negative controls) ([1]; gene JDP2): −3.46 | Fold change (miR-429 transfected HEY cells relative to negative controls) ([1]; gene KIAA1853): −3.32 | Fold change (miR-429 transfected HEY cells relative to negative controls) ([1]; gene KLHL13): −2.57 | Fold-change ([1]; gene LDLRAD3): −1.74 | Fold change (miR-429 transfected HEY cells relative to negative controls) ([1]; gene LMO4): −3.14 | Fold change (miR-429 transfected HEY cells relative to negative controls) ([1]; gene LOC148189): −2.69 | Fold change (miR-429 transfected HEY cells relative to negative controls) ([1]; gene LOC148987): −3.07 | Fold change (miR-429 transfected HEY cells relative to negative controls) ([1]; gene LOC158381): −7.31 | Fold change (miR-429 transfected HEY cells relative to negative controls) ([1]; gene LOC284561): −38.32 | Fold change (miR-429 transfected HEY cells relative to negative controls) ([1]; gene LOC286178): −10.56 | Fold-change ([1]; gene LOC339290): −1.87 | Fold change (miR-429 transfected HEY cells relative to negative controls) ([1]; gene LOC401497): −9.19 | Fold change (miR-429 transfected HEY cells relative to negative controls) ([1]; gene LOC439949): −2.48 | Fold change (miR-429 transfected HEY cells relative to negative controls) ([1]; gene LRP4): −2.66 | Fold change (miR-429 transfected HEY cells relative to negative controls) ([1]; gene MARS): −6.59 | Fold change (miR-429 transfected HEY cells relative to negative controls) ([1]; gene MARS2): −2.50 | Fold change (miR-429 transfected HEY cells relative to negative controls) ([1]; gene MERTK): −3.03 | Fold change (miR-429 transfected HEY cells relative to negative controls) ([1]; gene MGC16121): −3.46 | Fold change (miR-429 transfected HEY cells relative to negative controls) ([1]; gene MRAP): −3.05 | Fold change (miR-429 transfected HEY cells relative to negative controls) ([1]; gene NAV3): −4.35 | Fold change (miR-429 transfected HEY cells relative to negative controls) ([1]; gene NOC2L): −26.91 | Fold change (miR-429 transfected HEY cells relative to negative controls) ([1]; gene OSTM1): −4.35 | Fold change (miR-429 transfected HEY cells relative to negative controls) ([1]; gene PAPPA2): −23.75 | Fold change (miR-429 transfected HEY cells relative to negative controls) ([1]; gene PCK2): −4.44 | Fold change (miR-429 transfected HEY cells relative to negative controls) ([1]; gene PCOTH): −13.93 | Fold change (miR-429 transfected HEY cells relative to negative controls) ([1]; gene PHGDH): −3.78 | Fold change (miR-429 transfected HEY cells relative to negative controls) ([1]; gene PITX2): −2.45 | Fold-change ([1]; gene PRTG): −1.61 | Fold change (miR-429 transfected HEY cells relative to negative controls) ([1]; gene PSAT1): −6.92 | Fold change (miR-429 transfected HEY cells relative to negative controls) ([1]; gene PTPN13): −3.10 | Fold change (miR-429 transfected HEY cells relative to negative controls) ([1]; gene PYGO1): −3.61 | Fold-change ([1]; gene RDH10): −2.08 | Fold change (miR-429 transfected HEY cells relative to negative controls) ([1]; gene RGMB): −2.89 | Fold change (miR-429 transfected HEY cells relative to negative controls) ([1]; gene RPL22L1): −2.45 | Fold-change ([1]; gene SENP5): −1.80 | Fold change (miR-429 transfected HEY cells relative to negative controls) ([1]; gene SESN2): −3.61 | Fold change (miR-429 transfected HEY cells relative to negative controls) ([1]; gene SGSH): −2.57 | Fold change (miR-429 transfected HEY cells relative to negative controls) ([1]; gene SH3PXD2B): −5.13 | Fold change (miR-429 transfected HEY cells relative to negative controls) ([1]; gene SHANK2): −10.85 | Fold-change ([1]; gene SHMT2): −2.04 | Fold change (miR-429 transfected HEY cells relative to negative controls) ([1]; gene SLC1A4): −4.32 | Fold change (miR-429 transfected HEY cells relative to negative controls) ([1]; gene SLC1A5): −3.01 | Fold change (miR-429 transfected HEY cells relative to negative controls) ([1]; gene SLC7A11): −5.46 | Fold change (miR-429 transfected HEY cells relative to negative controls) ([1]; gene SLC24A3): −10.20 | Fold change (miR-429 transfected HEY cells relative to negative controls) ([1]; gene SLC27A4): −6.23 | Fold change (miR-429 transfected HEY cells relative to negative controls) ([1]; gene SNORA68): −14.52 | Fold change (miR-429 transfected HEY cells relative to negative controls) ([1]; gene SRCAP): −2.43 | Fold-change ([1]; gene STARD13): −1.78 | Fold change (miR-429 transfected HEY cells relative to negative controls) ([1]; gene SYF2): −12.64 | Fold change (miR-429 transfected HEY cells relative to negative controls) ([1]; gene SYT11): −2.66 | Fold-change ([1]; gene TIGD1): −2.38 | Fold change (miR-429 transfected HEY cells relative to negative controls) ([1]; gene TLR1): −15.24 | Fold change (miR-429 transfected HEY cells relative to negative controls) ([1]; gene TMEM156): −2.79 | Fold change (miR-429 transfected HEY cells relative to negative controls) ([1]; gene TMEM201): −5.58 | Fold-change ([1]; gene TSGA14): −2.33 | change in expression by microarray ([1]; gene TSPAN13 (epithelial marker)): up-regulated | Fold-change ([1]; gene WDR43): −1.88 | Fold change (miR-429 transfected HEY cells relative to negative controls) ([1]; gene YARS): −2.45 | Fold-change ([1]; gene ZBTB24): −1.87 | change in expression by microarray ([1]; gene ZEB2): did not display a significant change in expression | Fold change (miR-429 transfected HEY cells relative to negative controls) ([1]; gene ZNF30): −2.62 | Fold-change ([1]; gene ZNF697): −1.91 | Fold change (miR-429 transfected HEY cells relative to negative controls) ([1]; gene hCG_1654703): −7.46 | number of genes significantly down regulated [1, 3]: 296 genes | number of genes significantly up regulated [1, 3]: 373 genes | number of genes displaying significant changes in expression ([1]; miR-429 transfected cells vs negative control): 669 genes | sensitivity to cisplatin [2]: increased significantly
